Measured values: patent US20070031514A1, “Use of isoindolinone derivatives as insecticides” (priority 2003, published 2007)

melting point: 154 to 156 °C
Compound: Cc1cc(C(F)(C(F)(F)F)C(F)(F)F)ccc1N1C(=O)c2cccc(Cl)c2C1NC(C)(C)CS(C)(=O)=O (stereo not shown) [Synthesis Example 2, 4-chloro-3-(2-methanesulfonyl-1,1-dimethylethylamino)-2-[2-methyl-4-(1,2,2,2-tetrafluoro-1-trifluoromethylethyl)phenyl]-2,3-dihydroisoindol-1-one]
